Measured values published in patent publication US8492559B2, “Substituted indole compounds” (Gruenenthal GmbH, priority 2009, dated 2013).

Target: T1, human B1R receptor (hB1R) (Homo sapiens, UniProt P46663)
T1 construct: expressed in transfected cells; host or cells: CHO K1 cells
T1 sequence (P46663 1-353): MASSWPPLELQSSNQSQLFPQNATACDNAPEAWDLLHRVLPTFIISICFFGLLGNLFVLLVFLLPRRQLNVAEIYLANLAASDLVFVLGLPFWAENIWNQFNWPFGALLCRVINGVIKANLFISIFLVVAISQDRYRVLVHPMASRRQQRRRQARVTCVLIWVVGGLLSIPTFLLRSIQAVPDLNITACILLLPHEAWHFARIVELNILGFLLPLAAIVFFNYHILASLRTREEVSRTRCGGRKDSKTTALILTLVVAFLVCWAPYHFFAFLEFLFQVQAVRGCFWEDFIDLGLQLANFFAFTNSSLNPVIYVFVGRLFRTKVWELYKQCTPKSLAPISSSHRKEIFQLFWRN
Assay: Functional investigation on the bradykinin 1 receptor (B1R), FLIPR Ca2+ assay, hB1R cells
Type: cell-based
Conditions: CHO-K1, 10 μM test substance; CHO K1 cells with human B1R; agonist Lys-Des-Arg9 bradykinin; % of maximum achievable inhibition; read-out: B1R antagonism, human [10 μM] % inhibition
Experimental: The agonistic or antagonistic action of substances can be quantified on the bradykinin 1 receptor (B1R) of the human and rat species with ectopically expressing cell lines (CHO K1 cells) and with the aid of a Ca^2+-sensitive dye (Fluo-4) using a fluorescent imaging plate reader (FLIPR). The indication in % activation is based on the Ca^2+ signal after addition of Lys-Des-Arg^9 bradykinin (0.5 nM) or Des-Arg^9 bradykinin (100 nM). Antagonists lead to a suppression of the Ca^2+ influx following administration of the agonist. The % inhibition in comparison with the maximum achievable inhibition is indicated.
1. Functional Investigation on the Bradykinin 1 Receptor (B1R)
The agonistic or antagonistic action of substances can be determined on the bradykinin 1 receptor (B1R) of the human and rat species with the following assay. According to this assay, the Ca^2+ inflow through the channel is quantified with the aid of a Ca^2+-sensitive dye (Fluo-4 type, Molecular Probes Europe BV, Leiden, Netherlands) in a fluorescent imaging plate reader (FLIPR, Molecular Devices, Sunnyvale, USA).
Chinese hamster ovary cells (CHO K1 cells) which are stably transfected with the human B1R gene (hB1R cells) or the B1R gene of the rat (rB1R cells) are used. For functional investigations these cells are plated-out onto black 96-well plates with a clear base (BD Biosciences, Heidelberg, Germany or Greiner, Frickenhausen, Germany) in a density of 20,000-35,000 cells/well. Overnight the cells are incubated at 37° C. and 5% CO2 in culture medium (hB1R cells: Ham's Nutrient Mixture F12, Gibco Invitrogen GmbH, Karlsruhe, Germany or DMEM, Sigma-Aldrich, Taufkirchen, Germany; rB1R cells: D-MEM/F12, Gibco Invitrogen, Karlsruhe, Germany) with 10 vol. % FBS (foetal bovine serum, Gibco Invitrogen GmbH, Karlsruhe, Germany or PAN Biotech GmbH, Aidenbach, Germany).
On the following day the cells are loaded with 2.13 μM Fluo-4 (Molecular Probes Europe BV, Leiden, Netherlands) in HBSS buffer (Hank's buffered saline solution, Gibco Invitrogen GmbH, Karlsruhe, Germany) with 2.5 mM probenecid (Sigma-Aldrich, Taufkirchen, Germany) and 10 mM HEPES (Sigma-Aldrich, Taufkirchen, Germany) for 60 min at 37° C. The plates are subsequently washed twice with HBSS buffer, and HBSS buffer which additionally contains 0.1% BSA (bovine serum albumin; Sigma-Aldrich, Taufkirchen, Germany), 5.6 mM glucose and 0.05% gelatine (Merck KGaA, Darmstadt, Germany) is added. After a further incubation of 20 minutes at room temperature, the plates are inserted into the FLIPR for Ca^2+ measurement.
Alternatively they are washed with buffer A (15 mM HEPES, 80 mM NaCl, 5 mM KCl, 1.2 mM CaCl2, 0.7 mM MgSO4, 2 g/l glucose, 2.5 mM probenecid) and loaded with buffer A with added 2.5 μM Fluo-4 and 0.025% Pluronic F127 (Sigma-Aldrich, Taufkirchen, Germany). The cells are then washed twice with buffer A and incubated for 30 minutes with buffer A, which additionally contains 0.05% BSA and 0.05% gelatine, at room temperature and then used for Ca^2+ measurement in the FLIPR. The Ca^2+-dependent fluorescence is measured here before and after addition of substances (λex=488 nm, λem=540 nm). The quantification is performed by measuring the highest fluorescence intensity (FC, fluorescence counts) over time.
The FLIPR protocol comprises two additions of substance. Test substances (10 μM) are first pipetted onto the cells and the Ca^2+ inflow is compared with the control (hB1R: Lys-Des-Arg^9 bradykinin>=50 nM; rB1R: Des-Arg^9 bradykinin 10 μM). The value in % activation based on the Ca^2+ signal after addition of Lys-Des-Arg^9 bradykinin (>=50 nM) or Des-Arg^9 bradykinin (10 μM) is obtained therefrom. After incubation for 10-20 minutes, Lys-Des-Arg^9 bradykinin (hB1R) or Des-Arg^9 bradykinin (rB1R) is applied in the EC80 concentration and the inflow of Ca^2+ is likewise determined.
Antagonists lead to a suppression of the Ca^2+ inflow. The % inhibition in comparison with the maximum achievable inhibition is calculated. […]

inhibition at 10 µM: 100%
SMILES: COc1cc(C)c(S(=O)(=O)Nc2cccc3ccn(CC(=O)N4CCC5(CC4)CCN(c4ccncc4)CC5)c23)c(C)c1 [G_CC-91, 4-Methoxy-2,6-dimethyl-N-[1-[2-oxo-2-(3-pyridin-4-yl-3,9-diazaspiro-[5.5]undecan-9-yl)-ethyl]-1H-indol-7-yl]-benzenesulfonic acid amide]
